COC(=O)Nc1nc2ccc(Sc3ccccc3)cc2[nH]1
solubility (mole fraction)
Details | 283.15 K | 288.15 K | 293.15 K | 298.15 K | 303.15 K | 308.15 K | 313.15 K | 318.15 K | 323.15 K | 328.15 K
in 1,4-dioxane | – | 0.00107 | 0.00124 | 0.00148 | 0.00169 | 0.00195 | 0.00222 | 0.00256 | 0.00289 | 0.00326
in NMP | 0.0348 | 0.0389 | 0.0435 | 0.0485 | 0.0537 | 0.059 | 0.0651 | 0.0711 | 0.0773 | 0.0843
in acetone | 0.000176 | 0.000192 | 0.000211 | 0.000228 | 0.000246 | 0.000265 | 0.000287 | 0.000308 | 0.00033 | 0.000353
in water | 3.48e-06 | 4.4e-06 | 5.61e-06 | 7.12e-06 | 9.14e-06 | 1.15e-05 | 1.43e-05 | 1.77e-05 | 2.14e-05 | 2.63e-05

Source: BigSolDB 2.1
